# Measured values taken from USRE45916E1, “Intraoperative imaging of renal cortical tumors and cysts” (University of Rochester, priority 2006, dated 2016).
# Entries after “also recorded” stand apart in the source; their conditions may differ. Where two headings read alike, the source gives them in different places.
# Columns and labels:
# [1] = mammals, several months after the treatment, cited from earlier work
# [2] = tested on: renal cortical tumors and cysts; assay: Clinical trial: intraoperative near infrared fluorescence (NIRF) imaging of the kidney after intravenous ICG in radical or partial nephrectomy patients; format: in vivo, human
# Experimental: Following Institutional Review Board approval, a clinical trial of the invention was conducted. Ten patients presenting for radical or partial nephrectomy were enrolled in the trial. After the kidney was mobilized (typically, only one of the patient's kidneys is involved in such operations), ˜10 cc (2.5 mg/ml) of ICG was injected intravenously. Shortly after injection, near infrared fluorescence (NIRF) imaging was conducted and recorded using a LUNA™ NIRF system (Novadaq Technologies Inc, Mississauga, Canada). The first two patients selected presented for radical nephrectomy. […] After removal, the kidneys were studied by NIRF imaging to confirm that normal and tumor tissue could be distinguished. […] Eight of these patients were studied.
# [3] = cited from earlier work
# [4] = Animal studies: ICG injected into the penis to image nerves, kidney fluorescence observed; format: in vivo; conditions: animals
# Text: The present invention stems in part from studies we took in using the near infrared fluorescent dye indocyanine green (“ICG”) to image cavernous nerves of the penis. When abdominal incisions were made, we noted that the kidneys were fluorescent for hours to days after ICG administration, even though ICG is cleared quickly from the circulation. Because we are urologists, we are aware that kidney tumors tend to be hypervascular and develop rich vascular beds that are not uniform. We formed the hypothesis that the vascular beds would tend to impede the flow of ICG out of the tumor. We realized that any difference in admission or retention of fluorescent dye between normal and tumor tissue would result in different amounts of fluorescence, and that these differences could be exploited to detect the presence or absence of tumors in areas of the kidney. We hypothesized that kidney tumors would tend to retain ICG more than areas of the kidney with normal vasculature, and that areas within the kidney that fluoresced when exposed to light of an appropriate excitation frequency would identify the presence of tumors.
# Typically, the dye is administered sufficiently before the intended surgery to permit the kidney to take up the dye, but not so long before the surgery that the dye has been cleared by the liver or otherwise eliminated from the body. […]
# [5] = Clinical trial: safety of intravenous ICG in nephrectomy patients; format: in vivo, human; conditions: ten patients, ICG intravenously
# Experimental: Following Institutional Review Board approval, a clinical trial of the invention was conducted. Ten patients presenting for radical or partial nephrectomy were enrolled in the trial. After the kidney was mobilized (typically, only one of the patient's kidneys is involved in such operations), ˜10 cc (2.5 mg/ml) of ICG was injected intravenously. Shortly after injection, near infrared fluorescence (NIRF) imaging was conducted and recorded using a LUNA™ NIRF system (Novadaq Technologies Inc, Mississauga, Canada).
# Microscopy and histological studies were performed on excised tissue. […] Histological examination using hematoxylin and eosin staining confirmed the location of differential ICG fluorescence in tumor and normal renal tissue. All surgical margins were negative: 4 mm (the range of the margin was from 2-10 mm).
# intrinsic brain tumors = conditions: nine patients, ICG as intravenous contrast-enhancement agent; cited from earlier work
Compound,neuronal toxicity [1],neuronal toxicity ([1]; listed as fluorogold),surgical margins ([2]; partial nephrectomy under NIRF imaging),"fluorescence of complex / hemorrhagic cysts under NIRF imaging ([2]; patients, ICG intravenously)","fluorescence of normal kidney tissue under NIRF imaging ([2]; patients, ICG intravenously)","fluorescence of kidney tumors under NIRF imaging ([2]; patients, ICG intravenously, ~10 cc (2.5 mg/ml), against normal kidney parenchyma)","fluorescence of benign cysts under NIRF imaging ([2]; patients, ICG intravenously, compared to normal parenchyma)",metabolism ([3]; in the body),excretion ([3]; in vivo),reabsorption from the intestine / enterohepatic recirculation ([3]; in vivo),distribution after intravenous injection ([3]; with normal vascular permeability),"kidney fluorescence 18 hours after injection ([4]; ICG injected into the penis, 18 hours after injection)",duration of kidney fluorescence after ICG administration ([4]; seen at abdominal incision),effects of the dye on post-operative hepatorenal function [5],hypersensitivity reactions [5],dynamic optical signals of brain tissue and tumors (intrinsic brain tumors),optical imaging of resection margins in malignant tumors (intrinsic brain tumors)
N=C(N)c1ccc(/C=C/c2ccc(C(=N)N)cc2O)cc1 [Fluorogold],low evidence of neuronal toxicity,without evidence of neuronal toxicity,,,,,,,,,,,,,,,
"CC1(C)C(/C=C/C=C/C=C/C=C2\N(CCCCS(=O)(=O)O)c3ccc4ccccc4c3C2(C)C)=[N+](CCCCS(=O)(=O)[O-])c2ccc3ccccc3c21 [ICG, indocyanine green]",,,negative,hypo- or non-fluorescent; also recorded: NIRF characteristics of renal cell carcinoma,fluoresced brightly; also recorded: brightly fluorescent,non-fluorescing “black” or hypofluorescent “gray” areas; also recorded: hypo- or non-fluorescent areas; also recorded: hypo-fluorescent or non-fluorescent areas,even more fluorescent than did normal tissue; also recorded: increased fluorescence compared to the normal parenchyma,not metabolized in the body,excreted exclusively by the liver,not reabsorbed from the intestine and does not undergo enterohepatic recirculation,remains intravascular,intense fluorescence,hours to days,No hypersensitivity reactions or effects of the dye on post-operative hepatorenal function were observed,No hypersensitivity reactions,"differences in the dynamic optical signals among normal brain, low-grade astrocytomas, and malignant astrocytomas",differences between adjacent normal tissue and remaining tumor tissue
